These results are taken from patent US20090142337A1, “Pharmaceutical Combinations of Diazole Derivatives for Cancer Treatment” (Astex Therapeutics Limited, priority 2006, published 2009).

Series [1] is described as follows: Vapour sorption/desorption analysis. The series is classed as physicochemical. The settings on record: 0 to 90% RH stepwise, 25 °C, total upon equilibration at 90% RH. The protocol:
Crystals of 4-(2,6-dichlorobenzoylamino)-1H-pyrazole-3-carboxylic acid (1-methanesulphonyl-piperidin-4-yl)-amide prepared by the recrystallisation method of Example 5 Step 8 were subjected to vapour sorption/desorption analysis in order to test for the propensity of this sample to form a hydrated state.
Approximately 20 mg of sample was placed into a wire-mesh vapour sorption balance pan and loaded into an ‘IgaSorp’ vapour sorption balance (Hiden Analytical Instruments) held at 25+/−0.1° C. The sample was then dried by maintaining a 0% humidity environment (using mass flow control apparatus) until no further weight change was recorded. Subsequently, the sample was then subjected to a ramping profile from 0-90% relative humidity (% RH) at 10% RH increments, maintaining the sample at each step until equilibration had been attained (99.5% step completion).
Upon reaching equilibration, the % RH within the apparatus was ramped to the next step and the equilibration procedure repeated. After completion of the sorption cycle, the sample was then dried using the same procedure. The weight change during the sorption/desorption cycles was then monitored, allowing for the hygroscopic nature of the sample to be determined.

Series [2] can be described thus: Determination of oral bioavailability. In kind it is in vivo, balb/c mice. The settings on record: mice, oral route (5 mg/kg PO vs 1 mg/kg IV). Here is the method: The oral bioavailability of the compounds for use in the combinations of the invention may be determined as follows.
The test compound is administered as a solution both I.V. and orally to balb/c mice at the following dose level and dose formulations; • 1 mg/kg IV formulated in 10% DMSO/90% (2-hydroxypropyl)-β-cyclodextrin (25% w/v); and • 5 mg/kg PO formulated in 10% DMSO/20% water/70% PEG200.
At various time points after dosing, blood samples are taken in heparinised tubes and the plasma fraction is collected for analysis. The analysis is undertaken by LC-MS/MS after protein precipitation and the samples are quantified by comparison with a standard calibration line constructed for the test compound. The area under the curve (AUC) is calculated from the plasma level vs time profile by standard methods. The oral bioavailability as a percentage is calculated from the following equation: […]

Series [3] relates to human tumour derived cell lines. Put plainly: Xenograft studies. The series is classed as in vivo, nude mice. The settings on record: dosed orally. An excerpt:
These biomarkers include suppression of phosphorylation of substrates of the cyclin dependent kinases e.g. retinoblastoma protein.

The test system of series [4] is HCT-116 cell line. Put plainly: Anti-proliferative activity (Alamar Blue assay). In kind it is cell-based, human. The settings on record: for IC50: Homo sapiens, HCT-116, read-out: HCT-116 cell proliferation IC50. Here is the method:
The anti-proliferative activities of compounds for use in the combinations of the invention can be determined by measuring the ability of the compounds to inhibition of cell growth in a number of cell lines. […] The method is based on the ability of viable cells to reduce resazurin to its fluorescent product resorufin. […] The number of viable cells is determined by Alamar Blue assay as before. Cell lines can be obtained from the ECACC (European Collection of cell Cultures).

The test system of series [5] is OVCAR-3 tumour cells. The settings on record: concentrations of 50 and 100 microM; cited from earlier work.
For series [6], the system named is PKG. The settings on record: cited from earlier work.
In series [7] the target is PKA (Homo sapiens, UniProt P17612). The settings on record: cited from earlier work.
In series [8] the test system is CML patients. The settings on record: CML blast phase; cited from earlier work.
In series [9] the target is CDK2/CyclinA (Homo sapiens, UniProt P24941). Put plainly: Activated CDK2/CyclinA kinase inhibitory activity assay. In kind it is biochemical. Here is the method: The reaction is allowed to proceed for 2 to 4 hours before being stopped with an excess of ortho-phosphoric acid (5 μl at 2%). γ^33P-ATP which remains unincorporated into the histone H1 is separated from phosphorylated histone H1 on a Millipore MAPH filter plate. The wells of the MAPH plate are wetted with 0.5% orthophosphoric acid, and then the results of the reaction are filtered with a Millipore vacuum filtration unit through the wells. Following filtration, the residue is washed twice with 200 μl of 0.5% orthophosphoric acid. Once the filters have dried, 20 μl of Microscint 20 scintillant is added, and then counted on a Packard Topcount for 30 seconds.

As for `CS(=O)(=O)N1CCC(NC(=O)c2n[nH]cc2NC(=O)c2c(Cl)cccc2Cl)CC1` [Example 1, 4-(2,6-dichloro-benzoylamino)-1H-pyrazole-3-carboxylic acid (1-methanesulphonyl-piperidin-4-yl)-amide], the “weight increase on vapour sorption” value in series [1] turned out to be 0.24%. Further, the bioavailability in series [2] (balb/c, mouse, plasma, oral, 5 mg/kg) is 40 to 50%. Also, the oral bioavailability in series [2] is recorded as 30-100%. In addition, in series [3], the “tumour biomarkers (phosphorylation of CDK substrates e.g. retinoblastoma protein)” value was “inhibition of the tumour biomarkers”. In series [3] (xenografts implanted sub-cutaneously), the “tumour growth in xenografts” value is given as “inhibition of tumour growth”. In series [4], the “more potent anti-proliferative effect on human colon cancer HCT-116 cell line compared to difluoro-analogue” value is given as 6-7 fold and the IC50 is 0.11 µM.
As to `O=S(=O)(NCCNCC=C(c1ccccc1)c1ccccc1)c1cccc2cnccc12` [NL-71-101], the “apoptosis in OVCAR-3 tumour cells” value in series [5] is listed as “induced apoptosis”. The IC50 in series [6] is 36 µM; in series [7], 9 µM.
Consider `Cc1ccc(NC(=O)c2ccc(CN3CCN(C)CC3)cc2)cc1Nc1nccc(-c2cccnc2)n1` [imatinib], for which the duration of remissions in [8] is listed as 2-6 months.
Consider `CS(=O)(=O)N1CCC(NC(=O)c2n[nH]cc2NC(=O)c2c(F)cccc2F)CC1` [reference compound], for which the “selectivity for CDK inhibition over GSK3β” value in series [9] was approximately 6 fold. Further, the IC50 in [4] stood at 0.74 µM.

As usually defined, the bioavailability is the share of a dose that reaches the circulation, judged against a reference dose that is usually intravenous.
